Data: PubChem BioAssay (NCI)
“And” between values parts separate entries of the source, which are not always exact repeats. Equal entries are not always repeated.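 1) Cells in 96-well plates. 2) Compound, 48 h, 5 concentrations. 3) Linear interpolation between surrounding doses. 4) Unreached endpoint = highest concentration. GI50 marks 50% less growth. TGI is the concentration that stops growth completely.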

Key:
Assay in all cases: NCI-60 cell line screen, 48 h
CCRF-CEM leukemia = tested on: CCRF-CEM leukemia
COLO 205 colon = tested on: COLO 205 colon
HCC-2998 colon = tested on: HCC-2998 colon
HCT-116 colon = tested on: HCT-116 colon
HOP-92 NSCLC = tested on: HOP-92 NSCLC
K-562 leukemia = tested on: K-562 leukemia
MDA-MB-231 breast = tested on: MDA-MB-231 breast
RXF 393 renal = tested on: RXF 393 renal
SK-MEL-5 melanoma = tested on: SK-MEL-5 melanoma
T-47D breast = tested on: T-47D breast

Row | SMILES | GI50 (CCRF-CEM leukemia) | TGI (CCRF-CEM leukemia) | GI50 (COLO 205 colon) | TGI (COLO 205 colon) | GI50 (HCC-2998 colon) | TGI (HCC-2998 colon) | GI50 (HCT-116 colon) | TGI (HCT-116 colon) | GI50 (HOP-92 NSCLC) | TGI (HOP-92 NSCLC) | GI50 (K-562 leukemia) | TGI (K-562 leukemia) | GI50 (MDA-MB-231 breast) | TGI (MDA-MB-231 breast) | GI50 (RXF 393 renal) | TGI (RXF 393 renal) | GI50 (SK-MEL-5 melanoma) | TGI (SK-MEL-5 melanoma) | GI50 (T-47D breast) | TGI (T-47D breast)
1 | O=C1NC(=NCc2ccccc2)S/C1=C\c1ccc2ncccc2c1 | > 17.1 µM | > 25 µM | > 25 µM | > 25 µM | > 25 µM | > 25 µM | > 20700 nM | > 25 µM | > 25 µM | > 25 µM | > 25 µM | > 25 µM | > 25 µM | > 25 µM | > 25 µM | > 25 µM | > 25000 nM | > 25 µM | > 25 µM | > 25 µM
2 | CC(=O)OCc1ccc2c(c1)C(O)NC(=O)O2 (stereo not given) |  | 40.4 µM |  | > 100 µM |  |  |  | > 100 µM |  | > 100 µM |  | > 100 µM |  | > 100 µM |  | > 100 µM |  | > 100 µM |  | > 100 µM
3 | CC(=O)OC1(C)N=NC2(CCCCC2)O1 (stereo not given) |  | > 100 µM |  | > 100 µM |  |  |  | > 100 µM |  | > 100 µM |  | > 100 µM |  | > 100 µM |  | > 100 µM |  | > 100 µM |  | > 100 µM
4 | O=C1c2c(F)c(F)c(F)c(F)c2C(=O)N1c1ccc(F)cc1F | 0.958 µM | 6.82 µM | 10.9 µM | 35.7 µM | 11.2 µM | 23.2 µM | 3710 nM | 14.2 µM | 13.8 µM | 31.9 µM | 2.58 µM | > 33.9 µM | 5.53 µM | 19.5 µM | 7.68 µM | > 46.7 µM | 13100 nM | 30.6 µM | 19.7 µM | 46.8 µM
5 | COC1=CC(=O)C(C2(OC(C)C)OC(=O)C(Cl)=C2Cl)=CC1=O (stereo not given) |  | > 100 µM |  | > 100 µM |  | > 100 µM |  | > 100 µM |  | > 100 µM |  | 10.8 µM |  | > 100 µM |  | > 100 µM |  | > 100 µM |  | > 100 µM
6 | COc1cc(-c2nn(-c3cccc(NC(=O)c4ccccc4)c3)cc2-c2ccncc2)ccc1Cl | 0.492 µM | > 100 µM | 0.522 µM | 3.23 µM | 2.13 µM | 33.6 µM | 421 nM | > 100 µM | 0.269 µM | 2.06 µM | 0.39 µM | > 100 µM | 1.06 µM | > 36.9 µM | 0.545 µM | > 25.2 µM | 259 nM | 0.945 µM | 0.843 µM | > 100 µM
7 | O=C(Nc1cccc(C(F)(F)F)c1)Nc1cccc(C(F)(F)F)c1 | 0.721 µM | 10.8 µM | 0.985 µM | 2.59 µM | 1.51 µM | 6.5 µM | 462 nM | 2.76 µM | 0.786 µM | 6.08 µM | 0.431 µM | 10.3 µM | 1.47 µM | 3.29 µM | 1.49 µM | 4.35 µM | 1280 nM | 2.55 µM | 0.398 µM | 2.94 µM
8 | O=[N+]([O-])c1cc([N+](=O)[O-])c(C(F)(F)F)cc1NN=C(c1ccc(O)cc1)c1ccc(O)cc1 | 3.71 µM | 14.4 µM | 2.15 µM | 5.33 µM | 3.2 µM | 8.58 µM | 2670 nM | 11.9 µM | 3.05 µM | 18.8 µM | 2.42 µM | 15.7 µM | 3.11 µM | 9.41 µM | 2.64 µM | 8.47 µM | 1640 nM | 3 µM | 2.74 µM | 13.3 µM
9 | c1ccc(Nc2ncc(-c3ccccc3)o2)cc1 | > 25 µM | > 25 µM | > 25 µM | > 25 µM | > 25 µM | > 25 µM | 24500 nM | > 25 µM | > 25 µM | > 25 µM | > 25 µM | > 25 µM | > 25 µM | > 25 µM | > 19.7 µM | > 25 µM | > 25000 nM | > 25 µM | > 25 µM | > 25 µM
10 | COc1ccc2ncnc(Nc3ccc(OCc4ccccc4)cc3)c2c1 | 8.49 µM | > 25 µM | 7.96 µM | > 25 µM | 6.42 µM | 18 µM | 8350 nM | > 25 µM | 2.92 µM | 16.9 µM | 9.01 µM | > 25 µM | 4.6 µM | 11.1 µM | 4.59 µM | 10.2 µM | 4620 nM | 11.8 µM | 5.37 µM | > 25 µM
11 | OC(c1cc(C(F)(F)F)nc2c(C(F)(F)F)cccc12)C1CCCCN1 (stereo not given) | 3.04 µM | 9.13 µM | 1.83 µM | 3.3 µM | 1.46 µM | 3.22 µM | 1790 nM | 3.22 µM | 1.01 µM | 3.69 µM | 3.12 µM | 6.47 µM | 1.78 µM | 3.45 µM | 1.71 µM | 4.53 µM | 1680 nM | 3.07 µM | 1.76 µM | 4.11 µM
12 | Cc1ccc(-c2nc(N3CCNCC3)c3oc(-c4ccc(C)cc4)nc3n2)cc1 | 1.49 µM | 4.04 µM | 1.98 µM | 4.11 µM | 3.61 µM |  |  |  | 11.5 µM | 26.5 µM | 1.81 µM | 4.51 µM | 1.77 µM | 3.45 µM | 3.89 µM | 8.81 µM | > 39200 nM | > 53.9 µM | 25.7 µM | > 61.1 µM
13 | C=CC(=O)Nc1cc(Nc2nccc(-c3cn(C)c4ccccc34)n2)c(OC)cc1N(C)CCN(C)C | 1.61 µM and 2.19 µM | 5.84 µM and 5.33 µM | 1.62 µM and 1.43 µM | 3.14 µM and 2.99 µM | 1.56 µM and 1.48 µM | 3.37 µM and 2.98 µM | 1720 nM and 1510 nM | 3.3 µM and 2.96 µM | 0.793 µM and 0.416 µM | 8.39 µM and 3.49 µM | 1.73 µM and 0.349 µM | 5.2 µM and 1.73 µM | 1.59 µM and 1.7 µM | 3.45 µM and 3.6 µM | 1.45 µM and 1.34 µM | 3.1 µM and 2.98 µM | 1720 nM | 3.13 µM | 0.815 µM and 0.363 µM | 11.6 µM and > 10 µM
14 | COC(=O)c1cc2oc(/C=C3/SC(=S)N(NC(C)=O)C3=O)cc2n1C | 11.8 µM | 76 µM | 22.4 µM | > 100 µM | 12 µM | 29.5 µM | 12100 nM | 31.1 µM | 19.6 µM | 44.5 µM | 24.7 µM | > 100 µM | 21.5 µM | 53.2 µM | 36.5 µM | 87.7 µM | 12600 nM | 26.2 µM | 29.6 µM | 90.7 µM
15 | CCC(C)SC1SCC2C(=O)N(C)C3(CC3C)C(=O)OCC(NC(=O)c3nc4ccccc4cc3O)C(=O)NC(C)C(=O)N(C)C1C(=O)N(C)C1(CC1C)C(=O)OCC(NC(=O)c1nc3ccccc3cc1O)C(=O)NC(C)C(=O)N2C (stereo not given) |  | 0.028 µM and < 0.013 µM |  | 0.000194 µM |  | 0.000369 µM | 0.0288 nM |  |  | 0.000585 µM |  |  |  | 0.000567 µM |  | 0.000154 µM | 0.0291 nM | 0.000112 µM and < 0.0142 µM |  | 0.00514 µM
16 | COc1c2ccccc2c(OC)c2[nH]c(=O)ccc12 | > 24.5 µM | > 100 µM | 4.3 µM | 14.9 µM | 13.2 µM | > 58.8 µM | 4980 nM | > 100 µM | 33.5 µM | > 100 µM | 6.39 µM | > 100 µM | 9.75 µM | > 89.8 µM | 16.3 µM | > 100 µM | 847 nM | 2.19 µM | 21.5 µM | > 100 µM
17 | Nc1nc2[nH]cc(CCc3ccc(C(=O)N[C@@H](CCC(=O)O)C(=O)O)cc3)c2c(=O)[nH]1 | 0.211 µM | > 100 µM | > 34.6 µM | > 100 µM | 0.0576 µM | > 100 µM | 127 nM | > 100 µM |  | > 100 µM |  | > 100 µM | > 100 µM | > 100 µM |  | > 100 µM |  | > 100 µM |  | > 100 µM
18 | COC(=O)/C=C/c1cc(OC(C)=O)c2c(c1)[C@@H](C(=O)OC)[C@H](c1ccc(OC(C)=O)c(OC(C)=O)c1)O2 | 0.039 µM | 34.4 µM | 3.57 µM | 24.7 µM | 0.514 µM | 22 µM | 48.5 nM | > 59.9 µM | 0.769 µM | 22.4 µM | 0.0378 µM | > 49.2 µM | 0.305 µM | 34.4 µM | 0.075 µM | 3.03 µM | 49.3 nM | 2.34 µM | 0.452 µM | 67.3 µM
19 | COc1cc2c(cc1OC)-c1cc(OC)c(OC)cc1C(CN(C)C)C2 (stereo not given) | > 10 µM | > 10 µM |  |  | > 10 µM | > 10 µM | > 10000 nM | > 10 µM | 9.97 µM | > 10 µM | > 10 µM | > 10 µM | > 10 µM | > 10 µM | > 10 µM | > 10 µM | > 10000 nM | > 10 µM | > 10 µM | > 10 µM
20 | Cc1cc(Nc2ccc(C)c(Cl)c2)n2nc(C(F)(F)F)nc2n1 |  |  | 23.5 µM | 70.1 µM | 40.8 µM | > 100 µM | 17200 nM | 46.2 µM | 18 µM | 59.4 µM | 16 µM | > 100 µM | 23.7 µM | > 100 µM | 19.4 µM | 82.4 µM | 14300 nM | 27.9 µM | 17.5 µM | 76 µM
21 | CN(C)c1ccc(/C=N/NC(=S)Nc2ccccc2)cc1 |  | > 100 µM |  | > 100 µM |  |  |  | > 100 µM |  | > 100 µM |  | > 100 µM |  | > 100 µM |  | > 100 µM |  | > 100 µM |  | > 100 µM
